Reference: PMC9220251, “Modulation of the 20S Proteasome Activity by Porphyrin Derivatives Is Steered through Their Charge Distribution” (Biomolecules, 2022)

Legend:
[1] = tested on: T1, human 20S proteasome (h20S); test: STD-NMR and WaterLOGSY; assay type: binding; conditions: 50 mM HEPES, 100 mM NaCl, 1 mM DTT, 298 K; TMPC 175 μM
T1 construct: gene PSMA6; purified 20S core particle, purchased from Boston Biochem; 28 subunits in four heptameric rings; no regulatory particle; with Proteasome subunit beta type-6; Proteasome subunit beta type-7; Proteasome subunit beta type-3; Proteasome subunit beta type-2; Proteasome subunit beta type-1; Proteasome subunit beta type-4

[2] = molecular target: T1, human 20S proteasome (h20S); test: Suc-LLVY-AMC hydrolysis, global fit of kcat and Km against TMPC (two-state model, n = […], m = […]); assay type: biochemical; conditions: competitive inhibitory site, substrate-free enzyme in basal state A; model also has three cooperative allosteric sites and state B with separate constants (KAU, KAL, KBU, KBL, KBI); 50 mM Tris-HCl pH

Kd [2]: 1000 nM
Structure (SMILES): C[n+]1ccc(-c2c3nc(c(-c4cc[n+](C)cc4)c4ccc([nH]4)c4ccc([nH]4)c(-c4cc[n+](C)cc4)c4ccc2[nH]4)C=C3)cc1 [TMPC]
STD-NMR and WaterLOGSY [1]: clearly indicate that the ligand interacts with the h20S
